Values quoted from earlier work in US20040156894A1, “Use of edible acids in fast-dispersing pharmaceutical solid dosage forms” (priority 2003, published 2004).
In brackets after ≈: the same amount, converted by molar mass.

| water solubility | Structure (SMILES) |
| --- | --- |
| < 1000 µg/mL | CN1C(C(=O)Nc2ccccn2)=C(O)c2ccccc2S1(=O)=O [piroxicam] |
| 4 µg/mL (≈ 12.7 µM) | CS(=O)(=O)c1ccc(C2=C(c3ccccc3)C(=O)OC2)cc1 [rofecoxib] |
